According to patent US10889625B2, “Peptide-based methods for treating neurological injury” (THE REGENTS OF THE UNIVERSITY OF COLORADO, a body corporate, priority 2016, dated 2021):
Residues, ends and D or L forms follow the SMILES beside them.

Key:
TRPM2 ion channels = TRPM2 ion channels (Mus musculus, UniProt Q91YD4); conditions: males and females, background statement; cited from earlier work
TRPM2 channels = target: T1, TRPM2 channels (Mus musculus, UniProt Q91YD4); experiment: 60 min tMCAO, total hemisphere infarct volume (TTC) in WT mice; assay type: in vivo; conditions: given 3 hours after MCAO
T1 construct: from tissue; host or cells: mouse brain in vivo; acute hippocampal/brain slices from mice
T1 sequence (Q91YD4 whole entry): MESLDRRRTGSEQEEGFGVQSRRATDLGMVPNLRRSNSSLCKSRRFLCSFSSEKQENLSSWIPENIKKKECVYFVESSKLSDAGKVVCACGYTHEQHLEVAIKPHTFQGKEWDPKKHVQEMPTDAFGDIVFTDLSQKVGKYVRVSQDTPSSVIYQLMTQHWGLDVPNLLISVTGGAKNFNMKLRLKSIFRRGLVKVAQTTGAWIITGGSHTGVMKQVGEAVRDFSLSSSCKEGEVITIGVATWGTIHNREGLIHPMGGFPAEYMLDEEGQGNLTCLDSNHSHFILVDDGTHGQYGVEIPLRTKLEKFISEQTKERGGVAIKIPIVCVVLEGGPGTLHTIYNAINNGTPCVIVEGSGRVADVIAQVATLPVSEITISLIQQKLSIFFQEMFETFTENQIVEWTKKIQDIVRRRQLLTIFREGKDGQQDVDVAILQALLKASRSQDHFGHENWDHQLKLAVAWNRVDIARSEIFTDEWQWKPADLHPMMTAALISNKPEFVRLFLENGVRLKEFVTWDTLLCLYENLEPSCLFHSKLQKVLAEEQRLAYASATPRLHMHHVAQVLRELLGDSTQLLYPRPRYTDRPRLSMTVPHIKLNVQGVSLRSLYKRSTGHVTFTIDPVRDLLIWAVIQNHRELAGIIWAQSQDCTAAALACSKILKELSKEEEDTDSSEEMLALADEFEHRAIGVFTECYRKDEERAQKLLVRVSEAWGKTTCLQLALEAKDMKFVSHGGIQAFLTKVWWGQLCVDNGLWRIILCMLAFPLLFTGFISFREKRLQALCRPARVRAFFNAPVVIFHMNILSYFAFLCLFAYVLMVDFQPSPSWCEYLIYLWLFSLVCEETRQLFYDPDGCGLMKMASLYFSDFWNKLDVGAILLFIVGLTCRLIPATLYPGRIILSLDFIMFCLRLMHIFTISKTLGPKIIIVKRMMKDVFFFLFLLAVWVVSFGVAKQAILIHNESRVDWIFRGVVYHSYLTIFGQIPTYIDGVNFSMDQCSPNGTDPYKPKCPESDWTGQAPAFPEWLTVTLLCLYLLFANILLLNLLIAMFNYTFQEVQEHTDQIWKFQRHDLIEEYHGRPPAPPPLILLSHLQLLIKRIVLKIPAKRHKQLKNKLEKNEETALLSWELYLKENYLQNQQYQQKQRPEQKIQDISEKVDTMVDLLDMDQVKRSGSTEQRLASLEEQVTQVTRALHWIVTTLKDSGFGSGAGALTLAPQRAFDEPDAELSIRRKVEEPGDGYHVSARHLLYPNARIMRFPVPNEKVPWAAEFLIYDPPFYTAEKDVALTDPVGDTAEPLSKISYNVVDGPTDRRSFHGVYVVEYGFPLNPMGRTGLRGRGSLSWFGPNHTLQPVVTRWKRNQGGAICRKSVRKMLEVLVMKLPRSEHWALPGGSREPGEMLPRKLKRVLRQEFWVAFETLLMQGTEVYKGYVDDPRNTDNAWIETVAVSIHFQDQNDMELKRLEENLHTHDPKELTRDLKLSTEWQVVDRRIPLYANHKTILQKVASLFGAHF

[1] = mice, MCAO

TRPM2 ion channels, sequence (Q91YD4 whole entry): as above

Compound	infarct size following stroke (TRPM2 ion channels)	infarct volume (TRPM2 channels) [%]	effect on physiological variables such as blood pressure [1]
Clc1ccccc1C(c1ccccc1)(c1ccccc1)n1ccnc1 [CTZ, clotrimazole]	reduces infarct size in males, but not females	46.8±7.4	
CSCC[C@H](NC(=O)[C@H](CCC(=O)O)NC(=O)CNC(=O)[C@@H]1CCCN1C(=O)[C@H](CCC(=O)O)NC(=O)[C@H](CCCNC(=N)N)NC(=O)[C@H](CO)NC(=O)CNC(=O)[C@H](CCCNC(=N)N)NC(=O)[C@H](CCCNC(=N)N)NC(=O)[C@H](CCCNC(=N)N)NC(=O)[C@H](CCC(N)=O)NC(=O)[C@H](CCCNC(=N)N)NC(=O)[C@H](CCCNC(=N)N)NC(=O)[C@H](CCCCN)NC(=O)[C@H](CCCCN)NC(=O)[C@H](CCCNC(=N)N)NC(=O)CNC(=O)[C@@H](N)Cc1ccc(O)cc1)C(=O)N[C@@H](CC(C)C)C(=O)N1CCC[C@H]1C(=O)N[C@@H](CCCNC(=N)N)C(=O)N[C@@H](CCCCN)C(=O)N[C@@H](CC(C)C)C(=O)N[C@@H](CCCCN)C(=O)N[C@@H](CCCNC(=N)N)C(=O)N[C@H](C(=O)N[C@@H](CC(C)C)C(=O)N[C@@H](CCCNC(=N)N)C(=O)N[C@@H](CCC(N)=O)C(=O)N[C@@H](CCC(=O)O)C(=O)N[C@@H](Cc1ccccc1)C(=O)N[C@@H](Cc1c[nH]c2ccccc12)C(=O)N[C@H](C(=O)O)C(C)C)C(C)C [tat-M2NX] (H-YGRKKRRQRRRGSREPGEMLPRKLKRVLRQEFWV-OH; N-terminus and C-terminus assumed)			no effect
